Results published in patent US20230399312A1, “SUBSTITUTED PYRIMIDINES AND METHODS OF USE” (THERAVANCE BIOPHARMA R&D IP, LLC, priority 2020, published 2023).

Experiments:
[1] = tested on: TGF-β-stimulated SMAD3 phosphorylation in BEAS-2B cells; test: Cellular ALK5 potency assay, inhibition of TGF-β stimulated pSMAD3 formation in BEAS-2B cells; format: cell-based; details: Homo sapiens, pSMAD3, TGF-β 10 ng/mL, read-out: BEAS2B pIC50 (converted)
Method in brief: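 Human lung epithelial BEAS-2B cells were pre-treated with compound for 1 h at 37 °C, then stimulated with TGF-β (final 10 ng/mL) for 30 min before lysis. pSMAD3 was quantified by AlphaLISA and pIC50 derived from dose-dependent signal change versus TGF-β-stimulated untreated cells.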

[2] = target: T1, recombinant human ALK5 (TGF-βR1) protein (Homo sapiens, UniProt P36897); test: Biochemical ALK5 (TGF-βR1) assay to measure pKi (LANCE Ultra ULight kinase assay); details: apparent pKi, converted from pIC50 by Cheng-Prusoff
T1 construct: purchased Life Technologies PR9075A
T1 sequence (P36897 34-503): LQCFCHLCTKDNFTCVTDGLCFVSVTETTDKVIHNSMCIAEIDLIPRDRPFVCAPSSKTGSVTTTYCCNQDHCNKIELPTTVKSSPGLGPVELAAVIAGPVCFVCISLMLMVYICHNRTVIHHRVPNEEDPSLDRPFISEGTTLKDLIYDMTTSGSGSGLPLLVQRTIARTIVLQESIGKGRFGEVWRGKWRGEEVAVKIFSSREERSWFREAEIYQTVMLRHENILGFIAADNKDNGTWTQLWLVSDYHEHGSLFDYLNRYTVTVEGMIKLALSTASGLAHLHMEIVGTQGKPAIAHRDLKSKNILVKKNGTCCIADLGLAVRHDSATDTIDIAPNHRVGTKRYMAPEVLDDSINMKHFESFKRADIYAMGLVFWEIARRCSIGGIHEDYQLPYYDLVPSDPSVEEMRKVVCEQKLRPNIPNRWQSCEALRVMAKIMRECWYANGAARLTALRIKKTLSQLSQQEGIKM
Method in brief: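 Cmpd + enzyme, 60 min RT; ATP from 125 μM (5×) stock, 60 min 37 °C; stop 12 mM EDTA/Eu anti-pThr1342 Topo2α Ab (pH 7.0 buffer); TR-FRET 665 nm. DMSO = max, SD-208 = min signal. 4-PL pIC50 → pKi (Cheng-Prusoff).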

Compound | IC50 [1] [nM] | Ki [2] [nM]
COC(=O)Cc1ccc(Nc2nccc(Nc3ccnc(-c4cccc(C)n4)n3)n2)cc1 [Compound 442, methyl 2-[4-[[4-[[2-(6-methyl-2-pyridyl)pyrimidin-4-yl]amino]pyrimidin-2-yl]amino]phenyl]acetate] | 25.1 to 158 | 0.398 to 3.16
Cc1cccc(-c2nccc(Nc3ccnc(Nc4cccc(NC(=O)C5CCCNC5)c4)n3)n2)n1 (stereo not shown) [Compound 443, N-(3-((4-((2-(6-methylpyridin-2-yl)pyrimidin-4-yl)amino)pyrimidin-2-yl)amino)phenyl)piperidine-3-carboxamide] | ≤ 20 | 0.0398 to 0.316
Cc1cccc(-c2nccc(Nc3ccnc(Nc4ccc(CN5CCCC(C(=O)O)C5)cc4)n3)n2)n1 (stereo not shown) [Compound 444, 1-[[4-[[4-[[2-(6-methyl-2-pyridyl)pyrimidin-4-yl]amino]pyrimidin-2-yl]amino]phenyl]methyl] piperidine-3-carboxylic acid] | 25.1 to 158 | 0.0398 to 0.316
Cc1cccc(-c2nccc(Nc3ccnc(Nc4ccc(N5CCNCC5)c(Cl)c4)n3)n2)n1 [Compound 445, N2-(3-chloro-4-piperazin-1-yl-phenyl)-N4-[2-(6-methyl-2-pyridyl)pyrimidin-4-yl]pyrimidine-2,4-diamine] | 25.1 to 158 | 0.0398 to 0.316
CN1CCN(C2CCN(c3ccc(Nc4nccc(Nc5ccnc(-c6ccccc6F)n5)n4)cc3)CC2)CC1 [Compound 446, N4-[2-(2-fluorophenyl)pyrimidin-4-yl]-N2-[4-[4-(4-methylpiperazin-1-yl)-1-piperidyl]phenyl]pyrimidine-2,4-diamine] | 25.1 to 158 | 0.398 to 3.16
Cc1cccc(-c2nccc(Nc3ccnc(Nc4ccc(N5CCNCC5)c(C#N)c4)n3)n2)n1 [Compound 447, 5-[[4-[[2-(6-methyl-2-pyridyl)pyrimidin-4-yl]amino]pyrimidin-2-yl]amino]-2-piperazin-1-yl-benzonitrile] | 25.1 to 158 | 0.0398 to 0.316
Cc1cccc(-c2nccc(Nc3ccnc(Nc4ccc(N5CCN(C(CCO)C(=O)O)CC5)cc4)n3)n2)n1 (stereo not shown) [Compound 448, 4-hydroxy-2-[4-[4-[[4-[[2-(6-methyl-2-pyridyl)pyrimidin-4-yl]amino]pyrimidin-2-yl]amino]phenyl]piperazin-1-yl]butanoic acid] | 25.1 to 158 | 0.0398 to 0.316
CC[C@H](C)OC(=O)CC1CNCCN1c1ccc(Nc2nccc(Nc3ccnc(-c4cccc(C)n4)n3)n2)cc1 (stereo partly drawn) [Compound 449, [(1S)-1-methylpropyl] 2-[1-[4-[[4-[[2-(6-methyl-2-pyridyl)pyrimidin-4-yl]amino]pyrimidin-2-yl]amino]phenyl]piperazin-2-yl]acetate] | 25.1 to 158 | 0.0398 to 0.316
Cc1cccc(-c2nccc(Nc3ccnc(Nc4ccc(N5CCC(NCc6ccccc6)CC5)cc4)n3)n2)n1 [Compound 450, N2-[4-[4-(benzylamino)-1-piperidyl]phenyl]-N4-[2-(6-methyl-2-pyridyl)pyrimidin-4-yl]pyrimidine-2,4-diamine] | 200 to 1260 | 0.0398 to 0.316
COC(=O)CC1CN(Cc2ccc(Nc3nccc(Nc4ccnc(-c5cccc(C)n5)n4)n3)cc2)CCN1 (stereo not shown) [Compound 451, methyl 2-[4-[[4-[[4-[[2-(6-methyl-2-pyridyl)pyrimidin-4-yl]amino]pyrimidin-2-yl]amino]phenyl]methyl]piperazin-2-yl]acetate] | 25.1 to 158 | 0.0398 to 0.316
Cc1cccc(-c2nccc(Nc3ccnc(Nc4csc(NC(=O)C5CCNCC5)c4)n3)n2)n1 [Compound 452, N-(4-((4-((2-(6-methylpyridin-2-yl)pyrimidin-4-yl)amino)pyrimidin-2-yl)amino)thiophen-2-yl)piperidine-4-carboxamide] | ≤ 20 | 0.0398 to 0.316
Cc1cccc(-c2nccc(Nc3ccnc(Nc4ccc(CN5C[C@H](C)NC[C@@H]5C)cc4)n3)n2)n1 [Compound 453, N2-[4-[[(2S,5S)-2,5-dimethylpiperazin-1-yl]methyl]phenyl]-N4-[2-(6-methyl-2-pyridyl)pyrimidin-4-yl]pyrimidine-2,4-diamine] | 25.1 to 158 | 0.0398 to 0.316
Cc1cccc(-c2nccc(Nc3ccnc(Nc4ccc(N5CCCC(C(=O)O)C5)cc4)n3)n2)n1 (stereo not shown) [Compound 454, 1-[4-[[4-[[2-(6-methyl-2-pyridyl)pyrimidin-4-yl]amino]pyrimidin-2-yl]amino]phenyl]piperidine-3-carboxylic acid] | 200 to 1260 | 0.0398 to 0.316
Cc1cccc(-c2nccc(Nc3ccnc(Nc4ccc(NS(=O)(=O)c5c[nH]cn5)cc4)n3)n2)n1 [Compound 455, N-[4-[[4-[[2-(6-methyl-2-pyridyl)pyrimidin-4-yl]amino]pyrimidin-2-yl]amino]phenyl]-1H-imidazole-4-sulfonamide] | 200 to 1260 | 0.398 to 3.16
Cc1cccc(-c2nccc(Nc3ccnc(Nc4ccc(N5CCN(C6CC6)CC5)cc4)n3)n2)n1 [Compound 457, N2-[4-(4-cyclopropylpiperazin-1-yl)phenyl]-N4-[2-(6-methyl-2-pyridyl)pyrimidin-4-yl]pyrimidine-2,4-diamine] | 25.1 to 158 | 0.0398 to 0.316
Cc1cccc(-c2nccc(Nc3ccnc(Nc4ccc(C)c(CN5C6CCC5CNC6)c4)n3)n2)n1 [Compound 458, N2-[3-(3,8-diazabicyclo[3.2.1]octan-8-ylmethyl)-4-methyl-phenyl]-N4-[2-(6-methyl-2-pyridyl)pyrimidin-4-yl]pyrimidine-2,4-diamine] | 25.1 to 158 | 0.0398 to 0.316
Cc1cccc(-c2nccc(Nc3ccnc(Nc4cccc(C(=O)O[C@@H]5CCNC5)c4)n3)n2)n1 [Compound 459, [(3R)-pyrrolidin-3-yl] 3-[[4-[[2-(6-methyl-2-pyridyl)pyrimidin-4-yl]amino]pyrimidin-2-yl]amino]benzoate] | 25.1 to 158 | 0.398 to 3.16
Cc1cccc(-c2nccc(Nc3ccnc(Nc4nc(CN5CCC[C@@H](C(=O)O[C@@H]6CCN(C)C6)C5)cs4)n3)n2)n1 [Compound 460, [(3R)-1-methylpyrrolidin-3-yl] (3R)-1-[[2-[[4-[[2-(6-methyl-2-pyridyl)pyrimidin-4-yl]amino]pyrimidin-2-yl]amino]thiazol-4-yl]methyl]piperidine-3-carboxylate] | 25.1 to 158 | 0.0398 to 0.316
Cc1cccc(-c2nccc(Nc3ccnc(Nc4ccc(F)c(CN5CCSCC5)c4)n3)n2)n1 [Compound 461, N2-[4-fluoro-3-(thiomorpholinomethyl)phenyl]-N4-[2-(6-methyl-2-pyridyl)pyrimidin-4-yl]pyrimidine-2,4-diamine] | 25.1 to 158 | 0.398 to 3.16
COC(=O)CC1CNCCN1c1ccc(Nc2nccc(Nc3ccnc(-c4cccc(C)n4)n3)n2)cc1 (stereo not shown) [Compound 462, methyl 2-[1-[4-[[4-[[2-(6-methyl-2-pyridyl)pyrimidin-4-yl]amino]pyrimidin-2-yl]amino]phenyl]piperazin-2-yl]acetate] | 25.1 to 158 | 0.0398 to 0.316
Cc1cccc(-c2nccc(Nc3ccnc(Nc4ccc(CN5CCN[C@H](CO)C5)cc4)n3)n2)n1 [Compound 463, [(2S)-4-[[4-[[4-[[2-(6-methyl-2-pyridyl)pyrimidin-4-yl]amino]pyrimidin-2-yl]amino]phenyl]methyl]piperazin-2-yl]methanol] | 25.1 to 158 | 0.0398 to 0.316
Cc1cccc(-c2nccc(Nc3ccnc(Nc4ccc(C(=O)O[C@@H]5CCN(C)C5)cc4)n3)n2)n1 [Compound 464, [(3R)-1-methylpyrrolidin-3-yl] 4-[[4-[[2-(6-methyl-2-pyridyl)pyrimidin-4-yl]amino]pyrimidin-2-yl]amino]benzoate] | 25.1 to 158 | 0.0398 to 0.316
Cc1cccc(-c2nccc(Nc3ccnc(Nc4ccc(NC(=O)C5CCN(C6CCNC6)CC5)cc4)n3)n2)n1 (stereo not shown) [Compound 465, N-[4-[[4-[[2-(6-methyl-2-pyridyl)pyrimidin-4-yl]amino]pyrimidin-2-yl]amino]phenyl]-1-pyrrolidin-3-yl-piperidine-4-carboxamide] | ≤ 20 | 0.0398 to 0.316
CC[C@H](C)OC(=O)Cc1cc(Nc2nccc(Nc3ccnc(-c4cccc(C)n4)n3)n2)ccc1N1CCNCC1 [Compound 466, [(1S)-1-methylpropyl] 2-[5-[[4-[[2-(6-methyl-2-pyridyl)pyrimidin-4-yl]amino]pyrimidin-2-yl]amino]-2-piperazin-1-yl-phenyl]acetate] | 25.1 to 158 | 0.0398 to 0.316
Cc1cccc(-c2nccc(Nc3ccnc(Nc4nc(CN(C)C5CNC5)cs4)n3)n2)n1 [Compound 467, N2-[4-[[azetidin-3-yl(methyl)amino]methyl]thiazol-2-yl]-N4-[2-(6-methyl-2-pyridyl)pyrimidin-4-yl]pyrimidine-2,4-diamine] | 25.1 to 158 | 0.398 to 3.16
Cc1cccc(-c2nccc(Nc3ccnc(Nc4ccc(-c5c(C)noc5C)cc4)n3)n2)n1 [Compound 469, N2-[4-(3,5-dimethylisoxazol-4-yl)phenyl]-N4-[2-(6-methyl-2-pyridyl)pyrimidin-4-yl]pyrimidine-2,4-diamine] | 25.1 to 158 | 0.398 to 3.16
